Reference: patent US20030208079A1, “Piperidinylaminomethyl trifluoromethyl cyclic ether compounds as substance P antagonists” (Pfizer Inc., priority 1997, published 2003)

Tested on: plasma protein extravasation in the ureter
Assay: capsaicin-induced plasma extravasation test
Assay type: in vivo
Conditions: 0.03 mg/kg, given orally 1 hour before capsaicin challenge, male guinea pigs
Protocol: In this test, anti-inflammatory activity is determined as the percent inhibition of plasma protein extravasation in the ureter of pentobarbital-anesthetized (25 mg/kg i.p.) male Hartey guinea pigs (weighing 300-350 g). Plasma extravasation is induced by intraperitoneal injection of capsaicin (30 μM in 0.1 BSA containing buffer, 10 ml/animal) into the animals, which are fasted overnight. The compounds of this invention were dissolved in 0.1% methyl cellulose-water and given orally 1 hour before capsaicin challenge. Evans blue dye (30 mg/kg) was administered intravenously 5 minutes before challenge. The animals were killed 10 minutes after capsaicin injection and both right and left ureter were removed. Tissue dye content was quantitated at 600 nm absorbance after overnight formamide extraction.

COc1cc2c(cc1CN[C@H]1CCCN[C@H]1c1ccccc1)C(C)(C(F)(F)F)OCC2.Cl.Cl (stereo partly drawn) [Example 3, (2S,3S)-3-(6-Methoxy-1-methyl-1-trifluoromethylisochroman-7-yl)methylamino-2-phenylpiperidine Dihydrochloride]
percent inhibition of plasma protein extravasation: 98%
